Legend:
Assay type in all cases: in vivo, human
[1] = test system: patients with dementia related psychosis; assay: Safety and tolerability (MMSE, long-term tolerability)
Protocol: Safety and tolerability of pimavanserin was also evaluated compared to placebo in patients with dementia related psychosis who have been stabilized on pimavanserin therapy. Safety endpoints were: treatment-emergent adverse events (TEAEs); serious adverse events (SAEs); withdrawals due to adverse events (AEs); clinically important changes in other safety assessments; Global Clinician Assessment of Suicidality (GCAS) score; Mini-Mental State Examination (MMSE) score; and Extrapyramidal Symptom Rating Scale (ESRS) score.

[2] = test system: patients with dementia related psychosis; assay: Double-blind, placebo-controlled period: relapse and all-cause discontinuation; conditions: for Hazard Ratio, relapse / Odds ratio, relapse: vs placebo
Protocol: (§1) A double-blind, placebo-controlled study of the efficacy and safety of pimavanserin was conducted to evaluate relapse prevention in patients with dementia related psychosis. The primary endpoint of this study was time from randomization to relapse in the double-blind period. The secondary endpoint of this study was time from randomization to discontinuation from the double-blind period for any reason.
(§2) The study consisted of a screening period of up to 4 weeks (3-28 days); an open-label period of 12 weeks; a double-blind period of up to 26 weeks; and an approximately 4-week safety follow-up period.
Randomization occurred at the double-blind Baseline visit (Week 12). Patients were randomly assigned 1:1 to continue their pimavanserin dose (34 mg or 20 mg) or matching placebo. Randomization was stratified by most likely dementia subtype or most prominent cause of dementia (Alzheimer's disease or frontotemporal dementia spectrum disorders, vascular dementia, or Parkinson's disease dementia or dementia with Lewy bodies) and by region.
Relapse criteria were assessed weekly for the first 2 weeks after randomization (Weeks 13 and 14), every 2 weeks until Week 26, and every 4 weeks through Week 38. Relapse criteria was also evaluated at unscheduled visits. Any patients who met any of the relapse criteria after randomization were withdrawn from study drug and entered the safety follow-up period of the study.

[3] = test system: patients with dementia related psychosis; assay: Open-label period of relapse prevention study of pimavanserin; conditions: for patients meeting response criteria: ≥30% reduction on SAPS-H+D total score and CGI-I score of 1 or 2
Protocol: as §1
Male or female patients ≥50 and ≤90 years of age were eligible if they met the criteria for All-cause Dementia according to NIA-AA guidelines. Eligible patients met the clinical criteria for one of the following disorders, with or without cerebrovascular disease (CVD): Dementia associated with Parkinson's disease; Dementia with Lewy bodies; Possible or probable Alzheimer's disease; Frontotemporal degeneration spectrum disorders, including possible or probable behavioral variant frontotemporal dementia, progressive supranuclear palsy, or corticobasal degeneration; or Vascular dementia, including post-stroke dementia, multi-infarct dementia and/or subcortical ischemic vascular dementia (SIVD). […] In addition, eligible patients had all of the following scores at Visit 1 (Screening) and Visit 2 (open-label Baseline): SAPS-H+D total score ≥10; CGI-S ≥4 (moderately ill); and SAPS-H+D global item (H7 or D13) score ≥4 (marked). Patients with a known personal or family history or symptoms of long QT syndrome were excluded.
as §2
During the open-label period, patients started pimavanserin 34 mg once daily (QD) by mouth beginning at Week 0 (open-label Baseline). Pimavanserin was continued daily at this dose level for at least the first week of treatment. After the first week, if the patient was unable to tolerate the 34 mg dose, the dose was decreased to 20 mg (provided as two 10 mg tablets) at any study visit (scheduled or unscheduled) until Week 4 (Visit 4). If the dose was decreased to 20 mg it may later be increased to 34 mg based on investigator judgment at any study visit (scheduled or unscheduled) until Week 4 (Visit 4). After Week 4 (Visit 4), the dose of study drug remained fixed at either 34 mg or 20 mg once daily.
The response criteria was ≥30% reduction from open-label baseline on SAPS-H+D total score and CGI-I score of 1 or 2. Analysis was restricted to eligible patients at the visit. A patient was eligible for the visit if the number of days between minimum (study discontinuation date, end of treatment date) and the first open-label dose exceeded the lower limit of the analysis visit window for the visit.

[4] = open-label period, Overall N = 351

CC(C)COc1ccc(CNC(=O)N(Cc2ccc(F)cc2)C2CCN(C)CC2)cc1 [pimavanserin, N-(4-Fluorophenylmethyl)-N-(1-methylpiperidin-4-yl)-N′-(4-(2-methylpropyloxy)phenylmethyl)carbamide]
tolerability ([1]; 34 mg, given long term in the elderly population): well tolerated | impact on cognition (MMSE) ([1]; over 9 months of treatment, FIG. 8): no negative impact | Incidence of relapse, (%) ([2]; AD): 13.1% | Incidence of relapse, n/N ([2]; AD): 8/61 | Hazard Ratio, relapse ([2]; AD): 0.618 | Odds ratio, relapse ([2]; AD): 0.5175 | Hazard Ratio (Pimavanserin/Placebo), relapse ([2]; Cox regression, 95% CI (0.172, 0.727), one-sided p 0.0023): 0.353 | Hazard Ratio (Pimavanserin/Placebo), all-cause discontinuation ([2]; Cox regression, 95% CI (0.261, 0.785), one-sided p 0.0024): 0.452 | Incidence of relapse, (%) ([2]; DLB): 0.0% | Incidence of relapse, n/N ([2]; DLB): 0/6 | Incidence of relapse, (%) ([2]; FTD): 100% | Incidence of relapse, n/N ([2]; FTD): 1/1 | Incidence of relapse, (%) ([2]; Overall): 12.6% | Incidence of relapse, n/N ([2]; Overall): 12/95 | Hazard Ratio, relapse ([2]; Overall): 0.353 | Odds ratio, relapse ([2]; Overall): 0.3666 | Incidence of relapse, (%) ([2]; PDD): 6.7% | Incidence of relapse, n/N ([2]; PDD): 1/15 | Hazard Ratio, relapse ([2]; PDD): 0.054 | Odds ratio, relapse ([2]; PDD): 0.0714 | Incidence of relapse, (%) ([2]; VaD): 16.7% | Incidence of relapse, n/N ([2]; VaD): 2/12 | Hazard Ratio, relapse ([2]; VaD): 1.065 | Odds ratio, relapse ([2]; VaD): 1.00 | reduction of risk of relapse of dementia related psychosis (psychotic exacerbation) compared to placebo ([2]; double-blind period, FIG. 6): 2.8 times | reduction of risk of all-cause discontinuation compared to placebo ([2]; double-blind period, FIG. 7): 2.2 × | Completed Week 26 Without a Relapse, (%) ([2]; double-blind period, N = 95): 38.9% | Number of Patients Discontinued for Any Reason, (%) ([2]; double-blind period, N = 95): 22.1% | Number of Patients Having a Relapse Event, (%) ([2]; double-blind period, N = 95): 12.6% | patients on placebo more likely to drop out of the trial for any reason ([2]; placebo vs pimavanserin): 2.2 times | psychosis (total SAPS-H+D change), exploratory analysis ([3]; across subtypes of dementia, baseline MMSE, baseline dementia severity, FIGS. 4A-C): substantially reduced psychosis | patients meeting response criteria ([3]; by Week 4, FIG. 2A): about 50% | patients meeting response criteria ([3]; by Week 8, FIG. 2B): about 70% | total SAPS-H+D reduction in change from open-label baseline ([3]; by Week 12, FIG. 1): 75.2% | CGI-S score reduction from baseline ([3]; by Week 12, overall population and across subtypes of dementia, FIG. 5A, 5B): about 2 | response rate across subgroups ([3]; dementia subtypes, baseline MMSE, age, psychosis severity, FIG. 2C-2F): consistently high response rate | patients demonstrating sustained response ([3]; open label period): > 60% | Early Termination: Adverse Event, (%) ([3]; open-label period, AD N = 229): (7.9) % | Early Termination: Lack of Response in Open Label, (%) ([3]; open-label period, AD N = 229): (20.1) % | Randomized to Double-blind Period, (%) ([3]; open-label period, AD N = 229): (59.8) % | Early Termination: Adverse Event, (%) ([3]; open-label period, DLB N = 22): (4.5) % | Early Termination: Lack of Response in Open Label, (%) ([3]; open-label period, DLB N = 22): (40.9) % | Randomized to Double-blind Period, (%) ([3]; open-label period, DLB N = 22): (45.5) % | Early Termination: Adverse Event, (%) ([3]; open-label period, FTD N = 6): (16.7) % | Early Termination: Lack of Response in Open Label, (%) ([3]; open-label period, FTD N = 6): (33.3) % | Randomized to Double-blind Period, (%) ([3]; open-label period, FTD N = 6): (50) % | Early Termination: Adverse Event, (%) [3, 4]: (7.7) % | Early Termination: Adverse Event, Number [3, 4]: 27 | Early Termination: Death, (%) [3, 4]: (0.3) % | Early Termination: Death, Number [3, 4]: 1 | Early Termination: Lack of Response in Open Label, (%) [3, 4]: (19.9) % | Early Termination: Lack of Response in Open Label, Number [3, 4]: 70 | Randomized to Double-blind Period, (%) [3, 4]: (61.8) % | Randomized to Double-blind Period, Number [3, 4]: 217 | Early Termination: Adverse Event, (%) ([3]; open-label period, PDD N = 59): (6.8) % | Early Termination: Death, (%) ([3]; open-label period, PDD N = 59): (1.7) % | Early Termination: Lack of Response in Open Label, (%) ([3]; open-label period, PDD N = 59): (15.3) % | Randomized to Double-blind Period, (%) ([3]; open-label period, PDD N = 59): (71.2) % | Early Termination: Adverse Event, (%) ([3]; open-label period, VaD N = 35): (8.6) % | Early Termination: Lack of Response in Open Label, (%) ([3]; open-label period, VaD N = 35): (11.4) % | Randomized to Double-blind Period, (%) ([3]; open-label period, VaD N = 35): (71.4) %

Source: patent publication US20210161880A1, “METHODS FOR TREATING DEMENTIA RELATED PSYCHOSIS” (ACADIA Pharmaceuticals Inc., priority 2019, published 2021)
